Source: patent publication US11142526B2, “Spirocycle compounds and methods of making and using same” (H. Lundbeck A/S, priority 2017, dated 2021)
Like-named read-outs stand apart in the source and are kept apart here.

Legend:
MAGL [1] = target: MAGL (Homo sapiens (Human), UniProt Q99685); assay: In vitro competitive activity-based protein profiling (gel-based, FP-Rh or HT-01 probe); format: biochemical
Experimental: In Vitro Competitive Activity-Based Protein Profiling.
Proteomes (human prefrontal cortex or cell membrane fractions) (50 μL, 1.0 mg/mL total protein concentration) were preincubated with varying concentrations of inhibitors at 37° C. After 30 min, FP-Rh or HT-01 (1.0 μL, 50 μM in DMSO) was added and the mixture was incubated for another 30 min at room temperature. Reactions were quenched with SDS loading buffer (15 μL—4×) and run on SDS-PAGE.

MAGL [2] = target: MAGL (Mus musculus (Mouse), UniProt O35678); assay: In vitro competitive activity-based protein profiling, mouse brain proteome; format: biochemical; settings: for inhibition at 1 µM: mouse; for IC50: mouse brain
MAGL (Mus musculus (Mouse), UniProt O35678), sequence (O35678 whole entry): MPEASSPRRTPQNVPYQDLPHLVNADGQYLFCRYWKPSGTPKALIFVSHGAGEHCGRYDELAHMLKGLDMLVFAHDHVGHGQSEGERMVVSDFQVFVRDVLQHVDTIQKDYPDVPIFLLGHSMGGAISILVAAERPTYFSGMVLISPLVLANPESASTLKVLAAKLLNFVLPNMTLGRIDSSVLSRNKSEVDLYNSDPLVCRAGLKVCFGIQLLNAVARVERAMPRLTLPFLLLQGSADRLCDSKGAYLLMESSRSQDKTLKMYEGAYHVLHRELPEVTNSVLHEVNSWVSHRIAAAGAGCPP

[3] = human PFC (prefrontal cortex), read-out: MAGL Human PFC (IC50)
[4] = human PC3, read-out: MAGL Human PC3 (IC50)
[5] = human PC3, read-out: MAGL % Inhibition at 1 μM (human PC3)
[6] = human PFC (prefrontal cortex), read-out: MAGL % Inhibition at 1 μM (human PFC)

MAGL (Homo sapiens (Human), UniProt Q99685), sequence (Q99685 whole entry): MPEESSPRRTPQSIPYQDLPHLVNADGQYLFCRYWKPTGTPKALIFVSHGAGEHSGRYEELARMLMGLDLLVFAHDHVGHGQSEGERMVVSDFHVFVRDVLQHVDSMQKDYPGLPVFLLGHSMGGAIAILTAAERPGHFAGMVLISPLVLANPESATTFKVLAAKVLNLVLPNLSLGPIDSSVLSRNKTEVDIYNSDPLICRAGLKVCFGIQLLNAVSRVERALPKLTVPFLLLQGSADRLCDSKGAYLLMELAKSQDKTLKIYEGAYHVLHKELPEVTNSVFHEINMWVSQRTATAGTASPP

Compound	inhibition at 1 µM (MAGL [2]) [%]	IC50 (MAGL [2]) [nM]	also measured
O=C(OC(C(F)(F)F)C(F)(F)F)N1CCC2(CCCN2Cc2cc3cc(Cl)cc(Cl)c3[nH]2)CC1 [Example 110, 1,1,1,3,3,3-Hexafluoropropan-2-yl 1-((5,7-dichloro-1H-indol-2-yl)methyl)-1,8-diazaspiro[4.5] decane-8-carboxylate]	> 75	< 100	IC50 (MAGL [1]; [3]): < 100 nM
Cn1ccc(C(=O)N2CCCC23CCN(C(=O)OC(C(F)(F)F)C(F)(F)F)CC3)n1 [Example 79, 1,1,1,3,3,3-Hexafluoropropan-2-yl 1-(1-methyl-1H-pyrazole-3-carbonyl)-1,8-diazaspiro[4.5] decane-8-carboxylate]	> 75	100 to 1000	IC50 (MAGL [1]; [4]): < 100 nM
Cc1nn2cccnc2c1C(=O)N1CCCC12CCN(C(=O)OC(C(F)(F)F)C(F)(F)F)CC2 [Example 171, 1,1,1,3,3,3-Hexafluoropropan-2-yl 1-(2-methylpyrazolo[1,5-a]pyrimidine-3-carbonyl)-1,8-diazaspiro[4.5] decane-8-carboxylate]	> 75	–	inhibition at 1 µM (MAGL [1]; [5]): > 75%; inhibition at 1 µM (MAGL [1]; [6]): > 75%; IC50 (MAGL [1]; [4]): < 100 nM
CC1(NC(=O)c2cn3c(n2)CN(c2ncco2)CC3)CCN(C(=O)OC(C(F)(F)F)C(F)(F)F)CC1 [Example 28, 1,1,1,3,3,3-Hexafluoropropan-2-yl 4-methyl-4-(7-(oxazol-2-yl)-5,6,7,8-tetrahydroimidazo[1,2-a]pyrazine-2-carboxamido)piperidine-1-carboxylate]	> 75	–	inhibition at 1 µM (MAGL [1]; [5]): > 75%
O=C(OC(C(F)(F)F)C(F)(F)F)N1CCC2(CCCN2C(=O)C2(c3ncc(C4CC4)cn3)CC2)CC1 [Example 33, 1,1,1,3,3,3-Hexafluoropropan-2-yl 1-(1-(5-cyclopropylpyrimidin-2-yl)cyclopropane-1-carbonyl)-1,8-diazaspiro[4.5]decane-8-carboxylate]	> 75	–	inhibition at 1 µM (MAGL [1]; [5]): > 75%; IC50 (MAGL [1]; [3]): < 100 nM
O=C(O)Cn1cc(CN2CCCC23CCN(C(=O)OC(C(F)(F)F)C(F)(F)F)CC3)c(-c2cccc(Cl)c2)n1 [Example 118, 2-(3-(3-Chlorophenyl)-4-((8-(((1,1,1,3,3,3-hexafluoropropan-2-yl)oxy)carbonyl)-1,8-diazaspiro[4.5]decan-1-yl)methyl)-1H-pyrazol-1-yl)acetic acid]	> 75	–	inhibition at 1 µM (MAGL [1]; [6]): > 75%; IC50 (MAGL [1]; [4]): < 100 nM
Cn1cc(CN2CCCC23CCN(C(=O)OC(C(F)(F)F)C(F)(F)F)CC3)cn1 [Example 175, 1,1,1,3,3,3-Hexafluoropropan-2-yl 1-((1-methyl-1H-pyrazol-4-yl)methyl)-1,8-diazaspiro[4.5] decane-8-carboxylate]	25 to 75	–	inhibition at 1 µM (MAGL [1]; [5]): > 75%; inhibition at 1 µM (MAGL [1]; [6]): > 75%
O=C(OC(C(F)(F)F)C(F)(F)F)N1CCC2(CCCN2C(=O)C(F)(F)c2ncccn2)CC1 [Example 32, 1,1,1,3,3,3-Hexafluoropropan-2-yl 1-(2,2-difluoro-2-(pyrimidin-2-yl)acetyl)-1,8-diazaspiro[4.5]decane-8-carboxylate]	–	–	inhibition at 1 µM (MAGL [1]; [5]): > 75%; inhibition at 1 µM (MAGL [1]; [6]): > 75%; IC50 (MAGL [1]; [4]): < 100 nM
O=C(OC(C(F)(F)F)C(F)(F)F)N1CCC2(CCCN2C(=O)c2cc3c(s2)CCNC3)CC1 [Example 152, 1,1,1,3,3,3-Hexafluoropropan-2-yl 1-(4,5,6,7-tetrahydrothieno[3,2-c]pyridine-2-carbonyl)-1,8-diazaspiro[4.5] decane-8-carboxylate]	–	–	IC50 (MAGL [1]; [4]): < 100 nM
O=C(OC(C(F)(F)F)C(F)(F)F)N1CCC2(CCCN2C(=O)c2nc3n(n2)CCCN3)CC1 [Example 153, 1,1,1,3,3,3-Hexafluoropropan-2-yl 1-(4,5,6,7-tetrahydro-[1,2,4]triazolo[1,5-a]pyrimidine-2-carbonyl)-1,8-diazaspiro[4.5]decane-8-carboxylate]	–	–	IC50 (MAGL [1]; [4]): < 100 nM
O=C(Cc1nc(C(F)(F)F)ccc1CN1CCCC12CCN(C(=O)OC(C(F)(F)F)C(F)(F)F)CC2)NS(=O)(=O)C1CC1 [Example 35, 1,1,1,3,3,3-Hexafluoropropan-2-yl 1-((2-(2-(cyclopropanesulfonamido)-2-oxoethyl)-6-(trifluoromethyl)pyridin-3-yl)methyl)-1,8-diazaspiro[4.5]decane-8-carboxylate]	–	–	inhibition at 1 µM (MAGL [1]; [5]): > 75%
CC1(NC(=O)c2cn3c(n2)CN(C2CCC2)CC3)CCN(C(=O)OC(C(F)(F)F)C(F)(F)F)CC1 [Example 183, 1,1,1,3,3,3-Hexafluoropropan-2-yl 4-(7-cyclobutyl-5,6,7,8-tetrahydroimidazo[1,2-a]pyrazine-2-carboxamido)-4-methylpiperidine-1-carboxylate]	–	–	inhibition at 1 µM (MAGL [1]; [5]): > 75%; inhibition at 1 µM (MAGL [1]; [6]): > 75%; IC50 (MAGL [1]; [4]): < 100 nM
O=C(OC(C(F)(F)F)C(F)(F)F)N1CCC2(CCN(Cc3cccnn3)C2)CC1 [Example 9, 1,1,1,3,3,3-Hexafluoropropan-2-yl 2-(pyridazin-3-ylmethyl)-2,8-diazaspiro[4.5]decane-8-carboxylate]	–	–	inhibition at 1 µM (MAGL [1]; [6]): > 75%
Cc1c(C(=O)N2CCCC23CCN(C(=O)OC(C(F)(F)F)C(F)(F)F)CC3)sc2ccccc12 [Example 94, 1,1,1,3,3,3-Hexafluoropropan-2-yl 1-(3-methylbenzo[b]thiophene-2-carbonyl)-1,8-diazaspiro[4.5] decane-8-carboxylate]	> 75	< 100	–
O=C(OC(C(F)(F)F)C(F)(F)F)N1CCC2(CCCN2C(=O)c2sc3ccccc3c2Cl)CC1 [Example 97, 1,1,1,3,3,3-Hexafluoropropan-2-yl 1-(3-chlorobenzo[b]thiophene-2-carbonyl)-1,8-diazaspiro[4.5] decane-8-carboxylate]	> 75	–	–
O=C(OC(C(F)(F)F)C(F)(F)F)N1CCC2(CCCN2C(=O)c2ccc3[nH]ccc3c2)CC1 [Example 89, 1,1,1,3,3,3-Hexafluoropropan-2-yl 1-(1H-indole-5-carbonyl)-1,8-diazaspiro[4.5] decane-8-carboxylate]	> 75	< 100	–
O=C(OC(C(F)(F)F)C(F)(F)F)N1CCC2(CCCN2Cc2cncs2)CC1 [Example 225, 1,1,1,3,3,3-Hexafluoropropan-2-yl 1-(thiazol-5-ylmethyl)-1,8-diazaspiro [4.5]decane-8-carboxylate]	> 75	–	–
Cc1c(CN(C)C2(C)CCN(C(=O)OC(C(F)(F)F)C(F)(F)F)CC2)sc2ccccc12 [Example 50, 1,1,1,3,3,3-Hexafluoropropan-2-yl 4-methyl-4-(methyl((3-methylbenzo[b]thiophen-2-yl)methyl)amino) piperidine-1-carboxylate]	> 75	100 to 1000	–
O=C(OC(C(F)(F)F)C(F)(F)F)N1CCC2(CCN(Cc3ccnnc3)C2)CC1 [Example 106, 1,1,1,3,3,3-Hexafluoropropan-2-yl 2-(pyridazin-4-ylmethyl)-2,8-diazaspiro [4.5]decane-8-carboxylate]	–	–	inhibition at 1 µM (MAGL [1]; [6]): > 75%
O=C(OC(C(F)(F)F)C(F)(F)F)N1CCC2(CCCN2C(=O)c2ccc3sccc3c2)CC1 [Example 90, 1,1,1,3,3,3-Hexafluoropropan-2-yl 1-(benzo[b]thiophene-5-carbonyl)-1,8-diazaspiro[4.5] decane-8-carboxylate]	> 75	< 100	–
O=C(O)c1ccc2[nH]c(CN3CCCC34CCN(C(=O)OC(C(F)(F)F)C(F)(F)F)CC4)cc2c1 [Example 15, 2-((8-(((1,1,1,3,3,3-Hexafluoropropan-2-yl)oxy)carbonyl)-1,8-diazaspiro[4.5]decan-1-yl)methyl)-1H-indole-5-carboxylic acid]	25 to 75	–	–
O=C(OC(C(F)(F)F)C(F)(F)F)N1CCC2(CCN(Cc3ccncn3)C2)CC1 [Example 74, 1,1,1,3,3,3-Hexafluoropropan-2-yl 2-(pyrimidin-4-ylmethyl)-2,8-diazaspiro[4.5] decane-8-carboxylate]	> 75	< 100	–
O=C(OC(C(F)(F)F)C(F)(F)F)N1CCC2(CCCN2C(=O)c2cc3ccccc3o2)CC1 [Example 83, 1,1,1,3,3,3-Hexafluoropropan-2-yl 1-(benzofuran-2-carbonyl)-1,8-diazaspiro[4.5] decane-8-carboxylate]	> 75	< 100	–
O=C(OC(C(F)(F)F)C(F)(F)F)N1CCC2(CCCN2C(=O)c2cccnc2)CC1 [Example 13, 1,1,1,3,3,3-Hexafluoropropan-2-yl 1-nicotinoyl-1,8-diazaspiro[4.5]decane-8-carboxylate]	> 75	–	–
Cc1ccc2[nH]c(C(=O)N3CCCC34CCN(C(=O)OC(C(F)(F)F)C(F)(F)F)CC4)cc2c1 [Example 14, 1,1,1,3,3,3-Hexafluoropropan-2-yl 1-(5-methyl-1H-indole-2-carbonyl)-1,8-diazaspiro[4.5]decane-8-carboxylate]	> 75	< 100	–
O=C(OC(C(F)(F)F)C(F)(F)F)N1CCC2(CCCN2C(=O)c2cc3ccccc3s2)CC1 [Example 80, 1,1,1,3,3,3-Hexafluoropropan-2-yl 1-(benzo[b]thiophene-2-carbonyl)-1,8-diazaspiro[4.5] decane-8-carboxylate]	> 75	< 100	–
O=C(OC(C(F)(F)F)C(F)(F)F)N1CCC2(CCN(Cc3ncccn3)C2)CC1 [Example 65, 1,1,1,3,3,3-Hexafluoropropan-2-yl 2-(pyrimidin-2-ylmethyl)-2,8-diazaspiro[4.5] decane-8-carboxylate]	> 75	–	–
O=C(OC(C(F)(F)F)C(F)(F)F)N1CCC2(CCCN2C(=O)C(F)(F)c2cnccn2)CC1 [Example 197, 1,1,1,3,3,3-Hexafluoropropan-2-yl 1-(2,2-difluoro-2-(pyrazin-2-yl)acetyl)-1,8-diazaspiro[4.5] decane-8-carboxylate]	–	–	inhibition at 1 µM (MAGL [1]; [5]): > 75%; inhibition at 1 µM (MAGL [1]; [6]): > 75%
